Reference: patent publication US11186576B2, “Pyrazolo[1,5-A][1,3,5]triazine and pyrazolo[1,5-A]pyrimidine derivatives as CDK inhibitors” (Aurigene Discovery Technologies Limited, priority 2015, dated 2021)

Tests used:
CDK7/CycH/MNAT1 = CDK7/CycH/MNAT1 (Homo sapiens (Human), UniProt P50613); assay: Biochemical assay for CDK7 (TR-FRET kinase assay); details: 60 min pre-incubation, 1 mM ATP; for inhibition at 10 µM: 10 μM compound, read-out: % inhibition @ 10 μM; for IC50: read-out: IC50
Procedure, shortened: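 CDK7/CycH/MNAT1 (5 nM) was preincubated with compound for 60 min at room temperature, then reacted for 60 min with 100 nM ULight-MBP and 1 mM ATP in 1% DMSO. Irreversibility was probed with 20, 60 and 180 min preincubations.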

[1] = test system: RNA polymerase II CTD phosphorylation (MDA-MB-231/NCI-H358 cells); assay: Inhibition of RNA polymerase II CTD phosphorylation in cell western assay; format: cell-based; details: 4 hours incubation, phospho RNA Pol II Ser-5 or Ser-2
Protocol: 25000 cells (MDA-MB-231/NCI-H358) were seeded in 96 well black clear bottom plate incubated for overnight before addition of selected compound. 3 fold dilutions of selected compound diluted in DMSO starting from 10 μM, added to cells and incubated for 4 hours at 37° C., 5% CO2 incubator. Cells were washed once with 100 μl of phosphate buffered saline (sigma #P3813), then fixed with 100 μl/well of 4% Para formaldehyde for 60 min at room temperature, in dark. The cells were washed 3 times with 100 μl of wash buffer (PBS with 0.1% Triton-X-100), later blocked for 2 hours at room temperature in blocking buffer (5% BSA in PBST). Cells were stained overnight at 4° C. with Phospho RNA Pol II (S5) (Millipore #04-1572, Abcam #5131) or Phospho RNA Pol II (Ser-2), antibody (Bethyl labs #A300-654-A) in blocking buffer. Post incubation cells were washed with Delifia wash buffer (Perkin Elmer #4010-0010). Cells were treated with LANCE secondary antibodies (LANCE® Eu-W1024 perkin elmer #AD-0076 for phospho Ser-5 CTD RNA pol-II and Delfia Eu-N1 anti rabbit IgG Perkin elmer #AD0106 for phospho Ser-2 CTD RNA pol-II) for 2 hours in assay buffer (Perkin Elmer #1244-111), Cells were washed 3 times with Delfia wash buffer post incubation, Enhancement solution (Perkin Elmer #1244-105) added and incubated for 20 mins. Europium readings were taken in Victor-3 instrument. Cell normalization was done using Hoechst dye (0.5 μg/ml).
Selected compounds were screened in the above mentioned assay procedure. The EC50 values are summarised in the below table; wherein group “A” refers to an EC50 value of less than or equal to 1 μM, group “B” refers to EC50 value in range of 1 to 10 μM and group “C” refers to EC50 value of greater than 10 μM.

CDK7/CycH/MNAT1, sequence (P50613 whole entry): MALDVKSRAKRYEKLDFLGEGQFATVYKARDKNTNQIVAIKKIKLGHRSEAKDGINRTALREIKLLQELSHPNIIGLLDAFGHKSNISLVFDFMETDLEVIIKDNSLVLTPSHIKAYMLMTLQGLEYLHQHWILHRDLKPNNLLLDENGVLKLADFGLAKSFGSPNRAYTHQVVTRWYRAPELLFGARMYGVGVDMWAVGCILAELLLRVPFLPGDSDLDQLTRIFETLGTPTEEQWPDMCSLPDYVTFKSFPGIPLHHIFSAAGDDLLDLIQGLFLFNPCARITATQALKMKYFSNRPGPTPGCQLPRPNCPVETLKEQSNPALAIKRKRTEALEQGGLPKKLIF
CDK7/CycH/MNAT1, sequence (P51946 whole entry partner): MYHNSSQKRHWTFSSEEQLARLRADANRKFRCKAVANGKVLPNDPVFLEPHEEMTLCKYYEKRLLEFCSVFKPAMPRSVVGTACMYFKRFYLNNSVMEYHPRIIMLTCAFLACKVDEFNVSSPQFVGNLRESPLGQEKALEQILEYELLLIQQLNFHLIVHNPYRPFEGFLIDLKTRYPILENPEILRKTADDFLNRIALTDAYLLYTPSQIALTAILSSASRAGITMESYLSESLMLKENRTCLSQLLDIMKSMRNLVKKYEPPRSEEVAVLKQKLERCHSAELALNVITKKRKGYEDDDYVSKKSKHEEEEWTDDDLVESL
CDK7/CycH/MNAT1, sequence (P51948 whole entry partner): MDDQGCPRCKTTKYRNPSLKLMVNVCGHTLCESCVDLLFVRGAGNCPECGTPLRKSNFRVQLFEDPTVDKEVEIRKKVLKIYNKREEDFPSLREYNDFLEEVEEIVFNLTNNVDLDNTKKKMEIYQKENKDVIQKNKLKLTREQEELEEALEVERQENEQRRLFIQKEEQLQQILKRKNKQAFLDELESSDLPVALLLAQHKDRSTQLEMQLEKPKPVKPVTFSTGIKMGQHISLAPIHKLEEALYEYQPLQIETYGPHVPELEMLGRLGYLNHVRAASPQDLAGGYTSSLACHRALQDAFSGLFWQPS

Structure (SMILES)	inhibition at 10 µM (CDK7/CycH/MNAT1)	IC50 (CDK7/CycH/MNAT1)	EC50 [1]
C=CC(=O)N1CC[C@H]1C(=O)Nc1cccc(CNc2nc(NC3CCOCC3)nc3c(C(C)C)cnn23)c1 [Compound 20, (S)-1-acryloyl-N-(3-(((8-isopropyl-2-((tetrahydro-2H-pyran-4-yl)amino)pyrazolo[1,5-a][1,3,5]triazin-4-yl)amino)methyl)phenyl)azetidine-2-carboxamide]	100%	< 300 nM	≤ 1000 nM
C=CC(=O)N1CCCCC1C(=O)Nc1cccc(CNc2nc(NC3CCOCC3)nc3c(C(C)C)cnn23)c1 (stereo not drawn) [Compound 21, 1-acryloyl-N-(3-(((8-isopropyl-2-((tetrahydro-2H-pyran-4-yl)amino)pyrazolo[1,5-a][1,3,5]triazin-4-yl)amino)methyl)phenyl)piperidine-2-carboxamide]	96%	< 300 nM	≤ 1000 nM
C=CC(=O)N1CCOCC1C(=O)Nc1cccc(CNc2nc(NC3CCOCC3)nc3c(C(C)C)cnn23)c1 (stereo not drawn) [Compound 24, 4-acryloyl-N-(3-(((8-isopropyl-2-((tetrahydro-2H-pyran-4-yl)amino)pyrazolo[1,5-a][1,3,5]triazin-4-yl)amino)methyl)phenyl)morpholine-3-carboxamide]	98%	< 300 nM	≤ 1000 nM
C=CC(=O)N1CCC(C(=O)Nc2ccc(F)c(CNc3nc(NC4CCOCC4)nc4c(C(C)C)cnn34)c2)C1 (stereo not drawn) [Compound 32, 1-acryloyl-N-(4-fluoro-3-(((8-isopropyl-2-((tetrahydro-2H-pyran-4-yl)amino)pyrazolo[1,5-a][1,3,5]triazin-4-yl)amino)methyl)phenyl)pyrrolidine-3-carboxamide]	91%	< 300 nM	1000 to 10000 nM
C=CC(=O)N[C@H]1CC[C@@H](C(=O)Nc2cccc(CNc3nc(NC4CCOCC4)nc4c(C(C)C)cnn34)c2F)CC1 [Compound 38, (1,4-cis)-4-acrylamido-N-(2-fluoro-3-(((8-isopropyl-2-((tetrahydro-2H-pyran-4-yl)amino)pyrazolo[1,5-a][1,3,5]triazin-4-yl)amino)methyl)phenyl)cyclohexane-1-carboxamide]	95%	< 300 nM	1000 to 10000 nM
CC(C)c1cnn2c(NCc3cccc(NC(=O)C4CCN(C(=O)/C=C/CN(C)C)C4)c3)nc(NC3CCOCC3)nc12 (stereo not drawn) [Compound 69, (E)-1-(4-(dimethylamino)but-2-enoyl)-N-(3-(((8-isopropyl-2-((tetrahydro-2H-pyran-4-yl)amino)pyrazolo[1,5-a][1,3,5]triazin-4-yl)amino)methyl)phenyl)pyrrolidine-3-carboxamide]	98%	< 300 nM	1000 to 10000 nM
C=CS(=O)(=O)N1CCCCC1C(=O)Nc1cccc(CNc2nc(NC3CCOCC3)nc3c(C(C)C)cnn23)c1 (stereo not drawn) [Compound 78, N-(3-(((8-isopropyl-2-((tetrahydro-2H-pyran-4-yl)amino)pyrazolo [1,5-a][1,3,5]triazin-4-yl)amino)methyl)phenyl)-1-(vinylsulfonyl)piperidine-2-carboxamide]	100%	< 300 nM	≤ 1000 nM
C=CC(=O)NC1(C(=O)Nc2cccc(CNc3nc(NC4CCOCC4)nc4c(C(C)C)cnn34)c2)CC1 [Compound 83, 1-acrylamido-N-(3-(((8-isopropyl-2-((tetrahydro-2H-pyran-4-yl)amino)pyrazolo[1,5-a][1,3,5]triazin-4-yl)amino)methyl)phenyl)cyclopropane-1-carboxamide]	96%	< 300 nM	≤ 1000 nM
C=CC(=O)Nc1cn(C)nc1C(=O)Nc1cccc(CNc2nc(NC3CCOCC3)nc3c(C(C)C)cnn23)c1 [Compound 85, 4-acrylamido-N-(3-(((8-isopropyl-2-((tetrahydro-2H-pyran-4-yl)amino)pyrazolo[1,5-a][1,3,5]triazin-4-yl)amino)methyl)phenyl)-1-methyl-1H-pyrazole-3-carboxamide]	99%	< 300 nM	1000 to 10000 nM

More lines, now with the values ahead:

inhibition at 10 µM (CDK7/CycH/MNAT1)	IC50 (CDK7/CycH/MNAT1)	EC50 [1]	Structure (SMILES)
97%	< 300 nM	1000 to 10000 nM	C=CC(=O)N1CCC(C(=O)Nc2cccc(CNc3nc(OC4CCN(C)CC4)nc4c(CC)cnn34)c2)CC1 [Compound 88, 1-acryloyl-N-(3-(((8-ethyl-2-((1-methylpiperidin-4-yl)oxy)pyrazolo [1,5-a][1,3,5]triazin-4-yl)amino)methyl)phenyl)piperidine-4-carboxamide]
95%	< 300 nM	1000 to 10000 nM	C=CC(=O)N[C@H]1CC[C@@H](C(=O)Nc2cccc(CNc3nc(OC4CCN(C)CC4)nc4c(CC)cnn34)c2)CC1 [Compound 90, (1,4-cis)-4-acrylamido-N-(3-(((8-ethyl-2-((1-methylpiperidin-4-yl)oxy)pyrazolo[1,5-a][1,3,5]triazin-4-yl)amino)methyl)phenyl)cyclohexane-1-carboxamide]
94%	< 300 nM	> 10000 nM	C=CC(=O)N[C@H]1CC[C@H](C(=O)Nc2cccc(CNc3nc(OC4CCN(C)CC4)nc4c(C(C)C)cnn34)c2)CC1 [Compound 91, (1,4-trans)-4-acrylamido-N-(3-(((8-isoproprayl-2-((1-methylpiperidin-4-yl)oxy)pyrazolo[1,5-a][1,3,5]triazin-4-yl)amino)methyl)phenyl)cyclohexane-1-carboxamide]
99%	< 300 nM	≤ 1000 nM	C=CC(=O)N1CCC1C(=O)Nc1cccc(CNc2nc(OC3CCN(C)CC3)nc3c(C(C)C)cnn23)c1 (stereo not drawn) [Compound 94, 1-acryloyl-N-(3-(((8-isopropyl-2-((1-methylpiperidin-4-yl)oxy)pyrazolo[1,5-a][1,3,5]triazin-4-yl)amino)methyl)phenyl)azetidine-2-carboxamide]
93%	< 300 nM	≤ 1000 nM	C=CC(=O)N1CCC(C(=O)Nc2cccc(CNc3nc(OC4CCOCC4)nc4c(C(C)C)cnn34)c2)C1 (stereo not drawn) [Compound 95, 1-acryloyl-N-(3-(((8-isopropyl-2-((tetrahydro-2H-pyran-4-yl)oxy)pyrazolo[1,5-a][1,3,5]triazin-4-yl)amino)methyl)phenyl)pyrrolidine-3-carboxamide]
87%	300 to 1000 nM	1000 to 10000 nM	C=CC(=O)N1CCCC(C(=O)Nc2cccc(CNc3nc(OC4CCOCC4)nc4c(C(C)C)cnn34)c2)C1 (stereo not drawn) [Compound 96, 1-acryloyl-N-(3-(((8-isopropyl-2-((tetrahydro-2H-pyran-4-yl)oxy)pyrazolo[1,5-a][1,3,5]triazin-4-yl)amino)methyl)phenyl)piperidine-3-carboxamide]
87%	300 to 1000 nM	1000 to 10000 nM	C=CC(=O)N[C@H]1CC[C@@H](C(=O)Nc2cccc(CNc3nc(OC4CCOCC4)nc4c(C(C)C)cnn34)c2)CC1 [Compound 97, (1,4-cis)-4-acrylamido-N-(3-(((8-isopropyl-2-((tetrahydro-2H-pyran-4-yl)oxy)pyrazolo[1,5-a][1,3,5]triazin-4-yl)amino)methyl)phenyl)cyclohexane-1-carboxamide]
96%	< 300 nM	1000 to 10000 nM	C=CC(=O)N[C@H]1CC[C@@H](C(=O)Nc2cccc(CNc3nc(OC4CCN(C)C4)nc4c(C(C)C)cnn34)c2)CC1 (stereo partly drawn) [Compound 101, (1,4-cis)-4-acrylamido-N-(3-(((8-isopropyl-2-((1-methylpyrrolidin-3-yl)oxy)pyrazolo[1,5-a][1,3,5]triazin-4-yl)amino)methyl)phenyl)cyclohexane-1-carboxamide]
92%	< 300 nM	> 10000 nM	C=CC(=O)N[C@H]1CC[C@@H](C(=O)Nc2cccc(CNc3nc(OC4CCN(C)CC4)nc4c(C5CC5)cnn34)c2)CC1 [Compound 105, (1,4-cis)-4-acrylamido-N-(3-(((8-cyclopropyl-2-((1-methylpiperidin-4-yl)oxy)pyrazolo[1,5-a][1,3,5]triazin-4-yl)amino)methyl)phenyl)cyclohexane-1-carboxamide]
91%	> 1000 nM	1000 to 10000 nM	C=CC(=O)N1CCC(C(=O)Nc2cccc(CNc3nc(OC4CCNCC4)nc4c(C(C)C)cnn34)c2)CC1 [Compound 106, 1-acryloyl-N-(3-(((8-isopropyl-2-(piperidin-4-yloxy)pyrazolo[1,5-a][1,3,5]triazin-4-yl)amino)methyl)phenyl)piperidine-4-carboxamide]
